Reference: ChEMBL document CHEMBL1129831, “Novel 2,5-disubstituted-1H-pyrroles with high affinity for the dopamine D3 receptor: N-benzyl modifications” (Bioorg Med Chem Lett, 1997)

What was measured:
[1] = biological target: Dopamine receptors; D2 & D3 (Homo sapiens) (UniProt P14416+P35462); assay: Ratio of D3 receptor to the D2 receptor; assay type: protein assay
D(3) dopamine receptor = D(3) dopamine receptor (Homo sapiens, UniProt P35462); assay: Binding affinity, displacement of [125I]iodosulpiride from human Dopamine receptor D3 expressed in CHO cells; assay type: cell-based
D(2) dopamine receptor = D(2) dopamine receptor (Homo sapiens, UniProt P14416); assay: Binding affinity, displacement of [125I]iodosulpiride from human Dopamine receptor D2 expressed in CHO cells; assay type: cell-based
Sequence of D(2) dopamine receptor (P14416 whole entry): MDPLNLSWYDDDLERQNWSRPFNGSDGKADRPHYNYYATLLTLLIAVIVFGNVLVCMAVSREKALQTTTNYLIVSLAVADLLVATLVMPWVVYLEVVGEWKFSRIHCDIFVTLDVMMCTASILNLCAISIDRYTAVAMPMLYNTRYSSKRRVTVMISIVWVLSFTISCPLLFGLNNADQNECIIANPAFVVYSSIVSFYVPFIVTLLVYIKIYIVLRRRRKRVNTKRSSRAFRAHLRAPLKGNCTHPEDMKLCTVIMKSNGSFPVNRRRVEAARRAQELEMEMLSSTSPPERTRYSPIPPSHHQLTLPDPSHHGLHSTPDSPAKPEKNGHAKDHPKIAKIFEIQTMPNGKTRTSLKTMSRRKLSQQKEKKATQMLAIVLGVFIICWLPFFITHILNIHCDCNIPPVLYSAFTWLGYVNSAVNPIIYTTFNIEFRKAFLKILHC

Sequence of D(3) dopamine receptor (P35462 whole entry): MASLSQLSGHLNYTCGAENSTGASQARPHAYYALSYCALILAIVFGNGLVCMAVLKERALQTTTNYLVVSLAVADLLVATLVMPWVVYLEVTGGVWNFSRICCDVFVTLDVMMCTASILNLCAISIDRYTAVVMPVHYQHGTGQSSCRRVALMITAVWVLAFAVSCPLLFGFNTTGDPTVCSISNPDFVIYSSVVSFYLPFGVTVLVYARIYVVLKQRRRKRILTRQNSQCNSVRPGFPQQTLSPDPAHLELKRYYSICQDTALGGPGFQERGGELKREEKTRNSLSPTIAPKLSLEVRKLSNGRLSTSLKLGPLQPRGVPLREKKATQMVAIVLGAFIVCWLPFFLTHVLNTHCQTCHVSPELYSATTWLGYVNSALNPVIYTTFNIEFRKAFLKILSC

SMILES | Ratio [1] | Ki (D(3) dopamine receptor) [nM] | Ki (D(2) dopamine receptor) [nM]
CCN(Cc1ccc(OC)c(OC)c1)Cc1ccc(-c2cc(S(=O)(=O)CC)ccc2OC)[nH]1 | 3 | 12.6 | 31.6
CCS(=O)(=O)c1ccc(OC)c(-c2ccc(CN3CCCCCC3c3cccc(OC)c3)[nH]2)c1 (stereo not drawn) | 15 | 50.1 | 794
CCN(Cc1ccc(-c2cc(S(=O)(=O)CC)ccc2OC)[nH]1)Cc1ccccc1C | 2 | 3.16 | 6.31
CCN(Cc1ccc(-c2cc(S(=O)(=O)CC)ccc2OC)[nH]1)C1CCc2ccccc21 (stereo not drawn) |  | 0.794 | 0.794
CCS(=O)(=O)c1ccc(OC)c(-c2ccc(CN3CCCCCC3c3ccc(C)cc3)[nH]2)c1 (stereo not drawn) | 30 | 0.794 | 25.1
CCN(Cc1ccc(C)cc1)Cc1ccc(-c2cc(S(=O)(=O)CC)ccc2OC)[nH]1 | 2 | 0.2 | 0.398
CCN(Cc1ccc(Cl)cc1)Cc1ccc(-c2cc(S(=O)(=O)CC)ccc2OC)[nH]1 | 3 | 0.398 | 1
CCN(Cc1ccc(-c2cc(S(=O)(=O)CC)ccc2OC)[nH]1)[C@@H](C)c1ccccc1 | 10 | 2.51 | 25.1
CCS(=O)(=O)c1ccc(OC)c(-c2ccc(CN3CCCCCC3c3ccccc3C)[nH]2)c1 (stereo not drawn) | 10 | 100 | 1260
CCN(Cc1ccc(-c2cc(S(=O)(=O)CC)ccc2OC)[nH]1)[C@H](C)c1ccccc1 | 10 | 0.794 | 7.94
CCS(=O)(=O)c1ccc(OC)c(-c2ccc(CN3CCc4ccccc4C3)[nH]2)c1 | 3 | 31.6 | 100
CCN1[C@H](c2ccccc2)CC[C@H]1c1ccc(-c2cc(S(=O)(=O)CC)ccc2OC)[nH]1 | 4 | 10 | 39.8
CCS(=O)(=O)c1ccc(OC)c(-c2ccc(C3CCCN3Cc3ccccc3)[nH]2)c1 (stereo not drawn) | 4 | 10 | 39.8
CCN(Cc1cccc(C)c1)Cc1ccc(-c2cc(S(=O)(=O)CC)ccc2OC)[nH]1 | 5 | 1.58 | 7.94
CCS(=O)(=O)c1ccc(OC)c(-c2ccc(CN3CCCCCC3c3ccc(OC)cc3)[nH]2)c1 (stereo not drawn) | 15 | 1.58 | 25.1
CCN1[C@@H](c2ccc(-c3cc(S(=O)(=O)CC)ccc3OC)[nH]2)CC[C@H]1c1ccccc1 |  | 100 | 158
CCS(=O)(=O)c1ccc(OC)c(-c2ccc(CN3CCCCCC3c3ccccc3)[nH]2)c1 (stereo not drawn) | 30 |  | 
CCN(Cc1cccc(Cl)c1)Cc1ccc(-c2cc(S(=O)(=O)CC)ccc2OC)[nH]1 | 4 | 2.51 | 10
CCN(Cc1ccccc1)Cc1ccc(-c2cc(S(=O)(=O)CC)ccc2OC)[nH]1 | 3 |  | 
CCN(Cc1ccc(-c2cc(S(=O)(=O)CC)ccc2OC)[nH]1)Cc1ccccc1Cl | 3 | 6.31 | 20
CCN(Cc1ccc(-c2cc(S(=O)(=O)CC)ccc2OC)[nH]1)C1CCCc2ccccc21 (stereo not drawn) | 3 | 5.01 | 12.6
CCN(Cc1ccc2c(c1)OCO2)Cc1ccc(-c2cc(S(=O)(=O)CC)ccc2OC)[nH]1 | 5 | 0.631 | 3.16
CCN(Cc1ccc(-c2cc(S(=O)(=O)CC)ccc2OC)[nH]1)Cc1ccccc1OC |  | 10 | 15.8
CCN(Cc1cccc(OC)c1)Cc1ccc(-c2cc(S(=O)(=O)CC)ccc2OC)[nH]1 | 10 | 7.94 | 79.4
CCN(Cc1ccc(OC)cc1)Cc1ccc(-c2cc(S(=O)(=O)CC)ccc2OC)[nH]1 | 8 | 0.251 | 2
